Data set [1] deals with Mycobacterium tuberculosis. Kind of data set: Antimycobacterial activity against Mycobacterium tuberculosis H37Rv assessed as inhibition of bacterial growth at 1.56 to 100 ug/ml incubated for 6 days by alamar blue dye based broth microdilution assay. The class given is functional. The following applies: dose 1.56-100 µg/ml; time 6 day; at 1.56 to 100 µg/mL.
A further data set concerns Escherichia coli. Kind of data set: Antimicrobial activity against Escherichia coli assessed as inhibition of microbial growth incubated for 24 hrs by well dilution assay based UV-Vis spectroscopy. Format: functional.
A further data set concerns Klebsiella pneumoniae. Kind of data set: Antimicrobial activity against Klebsiella pneumoniae assessed as inhibition of microbial growth incubated for 24 hrs by well dilution assay based UV-Vis spectroscopy. Format: functional.
In another data set the test system is Rhizopus stolonifer. Kind of data set: Antimicrobial activity against Rhizopus stolonifer assessed as inhibition of microbial growth incubated for 48 hrs by well dilution assay based UV-Vis spectroscopy. The class given is functional.
The subject of another data set is Macrophomina phaseolina. In words: Antimicrobial activity against Macrophomina phaseolina assessed as inhibition of microbial growth incubated for 48 hrs by well dilution assay based UV-Vis spectroscopy. Format: functional.
In a further data set the test system is Candida albicans. Kind of data set: Antimicrobial activity against Candida albicans assessed as inhibition of microbial growth incubated for 48 hrs by well dilution assay based UV-Vis spectroscopy. The class given is functional.
In a further data set the test system is Staphylococcus aureus. Kind of data set: Antimicrobial activity against Staphylococcus aureus assessed as inhibition of microbial growth incubated for 24 hrs by well dilution assay based UV-Vis spectroscopy. Format: functional.
The test system of a further data set is Pseudomonas aeruginosa. In words: Antimicrobial activity against Pseudomonas aeruginosa assessed as inhibition of microbial growth incubated for 24 hrs by well dilution assay based UV-Vis spectroscopy. The class given is functional.
A further data set deals with Aspergillus flavus. Kind of data set: Antimicrobial activity against Aspergillus flavus assessed as inhibition of microbial growth incubated for 48 hrs by well dilution assay based UV-Vis spectroscopy. The class given is functional.
The test system of a further data set is Aspergillus niger. Kind of data set: Antimicrobial activity against Aspergillus niger assessed as inhibition of microbial growth incubated for 48 hrs by well dilution assay based UV-Vis spectroscopy. The class given is functional.
The test system of a further data set is Proteus vulgaris. Kind of data set: Antimicrobial activity against Proteus vulgaris assessed as inhibition of microbial growth incubated for 24 hrs by well dilution assay based UV-Vis spectroscopy. The class given is functional.
Data set [2] can be described thus: Toxicity in brine shrimp assessed as lethal dose incubated for 24 hrs. The following applies: artemia salina.
Data set [3] in a line: Antioxidant activity assessed as DPPH radical scavenging activity. The class given is functional.
The nature of data set [4]: Antioxidant activity assessed as DPPH radical scavenging activity by spectrophotometric assay. The class given is functional. For orientation: Loss of DPPH colour is used to gauge radical scavenging.
Data set [5] can be described thus: Antioxidant activity assessed as DPPH radical scavenging activity incubated for 30 mins under dark condition by spectrophotometric assay. The class given is functional.
The subject of data set [6] is Mycobacterium tuberculosis. Kind of data set: Antimycobacterial activity against Mycobacterium tuberculosis H37Rv assessed as inhibition of bacterial growth incubated for 6 days by alamar blue dye based broth microdilution assay. Format: functional. The following applies: time 6 day.
A further data set relates to Salmonella typhimurium. Kind of data set: Antibacterial activity against Salmonella enterica subsp. enterica serovar Typhimurium assessed as inhibition of bacterial growth incubated for 24 hrs by filter paper disc diffusion assay. The class given is functional.
A further data set concerns Bacillus cereus. Kind of data set: Antibacterial activity against Bacillus cereus assessed as inhibition of bacterial growth incubated for 24 hrs by filter paper disc diffusion assay. Format: functional. (A growth-free zone around the sample is the usual read-out of agar diffusion tests.)
A short description of data set [7]: Antioxidant activity assessed as DPPH radical scavenging activity incubated for 30 mins under dark condition. Format: functional.

As usually defined, the MIC is the lowest concentration found to suppress growth. The LC50 is the concentration lethal to half of the exposed cells or organisms. A word on the IC50: it is the point on the concentration scale where inhibition reaches its midpoint. One may read the pIC50 as −log10 of the IC50, conventionally taken in molar units.

pIC50: −log10 of the molar value. In brackets after ≈: the same amount, converted by molar mass.

`Cc1c(/N=C/c2ccccc2)/c(=N\Nc2nc(-c3ccc(O)c(O)c3)cs2)n(-c2ccccc2)n1C`: the “inhibition (INH)” value in data set [1] worked out at 90%.

As to `Cc1c(/N=C/c2ccccc2)/c(=N\Nc2nc(-c3ccc(N(C)C)cc3)cs2)n(-c2ccccc2)n1C`, the “inhibition (INH)” value in data set [1] was determined as 90%.

Regarding `Cc1c(/N=C/c2ccco2)/c(=N\c2ccc(O)cc2)n(-c2ccccc2)n1C`, the MIC was determined as 16 µg/mL in the data set with Escherichia coli; 16 µg/mL in the data set with Klebsiella pneumoniae; 6 µg/mL in the data set on Rhizopus stolonifer; 6 µg/mL with Macrophomina phaseolina; 6 µg/mL in the data set with Candida albicans; 16 µg/mL with Staphylococcus aureus. Besides, the MIC came to 16 µg/mL in the data set on Pseudomonas aeruginosa, 6 µg/mL in the data set with Aspergillus flavus, 6 µg/mL with Aspergillus niger and 16 µg/mL in the data set on Proteus vulgaris.

On to `Cc1c(/N=C/c2ccccc2)/c(=N\Nc2nc(-c3ccccc3)cs2)n(-c2ccccc2)n1C`, for which the “inhibition (INH)” value in [1] was 90%.

Consider `Cc1c(/N=C/c2ccc(Cl)cc2)c(=O)n(-c2ccccc2)n1C`, for which, in [2], the LC50 came to 225 ppm.

`Cc1cc(C(C)(C)C)c(O)c(C(C)(C)C)c1` [BUTYLATED HYDROXYTOLUENE]: the IC50 was 32 µg/mL (≈ 145 µM) in data set [3], 31 µg/mL (≈ 141 µM) in data set [4] and 32 µg/mL (≈ 145 µM) in data set [5].

For `Cc1c(/N=C/c2cccc(Cl)c2)/c(=N\Nc2nc(-c3ccccc3)cs2)n(-c2ccccc2)n1C`, the “inhibition (INH)” value in data set [1] is 90%.

As for `Cc1c(/N=C/c2ccc(O)cc2)/c(=N\Nc2nc(-c3ccccc3)cs2)n(-c2ccccc2)n1C`, the “inhibition (INH)” value in data set [1] is recorded as 90%.

Consider `Cc1c(/N=C/c2ccc(Cl)cc2)/c(=N\Nc2nc(-c3ccccc3)cs2)n(-c2ccccc2)n1C`, for which the “inhibition (INH)” value in data set [1] came out at 90%.

In the case of `Cc1c(/N=C/c2ccc(O)c(O)c2)c(=O)n(-c2ccccc2)n1C`, the median lethal concentration (LC50) in [2] is 481 ppm.

Regarding `O=C(O)c1cc(O)c(O)c(O)c1` [GALLIC ACID], in data set [2], the 50% lethal concentration (LC50) is on record as 78 ppm.

As for `Cc1c(/N=C/c2ccc(O)cc2O)c(=O)n(-c2ccccc2)n1C`, in data set [2], the LC50 is 581 ppm.

With `COc1cccc(-c2csc(N/N=c3\c(/N=C/c4ccccc4)c(C)n(C)n3-c3ccccc3)n2)c1`, the “inhibition (INH)” value in [1] worked out at 90%.

With `Cc1c(/N=C/c2ccccc2)/c(=N\Nc2nc(-c3ccc(O)cc3O)cs2)n(-c2ccccc2)n1C`, in data set [6], the MIC is recorded as 0.648 10^-3micromol/ml. The “inhibition (INH)” value in [1] turned out to be 90%.

As to `COc1cc(-c2csc(N/N=c3\c(/N=C/c4ccccc4)c(C)n(C)n3-c3ccccc3)n2)ccc1O`, the “inhibition (INH)” value in data set [1] is listed as 90%.

As to `COc1ccccc1/N=N/c1ccc(O)c2ncccc12`, in [4], the IC50 came to 72 µg/mL (≈ 258 µM).

For `Cc1c(/N=C/c2cccc(F)c2)/c(=N\Nc2nc(-c3ccccc3)cs2)n(-c2ccccc2)n1C`, the “inhibition (INH)” value in data set [1] worked out at 90%.

For `Cc1c(/N=C/c2ccco2)/c(=N\c2ccccc2)n(-c2ccccc2)n1C`, the MIC was found to be 16 µg/mL with Escherichia coli; 16 µg/mL in the data set with Klebsiella pneumoniae; 6 µg/mL with Rhizopus stolonifer; 6 µg/mL in the data set with Macrophomina phaseolina; 6 µg/mL in the data set on Candida albicans; 16 µg/mL in the data set on Staphylococcus aureus. Further, the MIC amounted to 16 µg/mL with Pseudomonas aeruginosa, 6 µg/mL in the data set with Aspergillus flavus, 6 µg/mL in the data set on Aspergillus niger and 16 µg/mL in the data set with Proteus vulgaris.

In the case of `Cc1c(/N=C/c2ccccc2Cl)/c(=N\Nc2nc(-c3ccccc3)cs2)n(-c2ccccc2)n1C`, in data set [1], the “inhibition (INH)” value was determined as 90%.

As to `Cc1c(/N=C/c2ccco2)/c(=N\c2ccc([N+](=O)[O-])cc2)n(-c2ccccc2)n1C`, the MIC in the data set on Escherichia coli was 16 µg/mL; in the data set with Klebsiella pneumoniae, 16 µg/mL; with Rhizopus stolonifer, 6 µg/mL; in the data set on Macrophomina phaseolina, 6 µg/mL; in the data set on Candida albicans it was 6 µg/mL; in the data set with Staphylococcus aureus, 16 µg/mL. Also, the MIC was 16 µg/mL with Pseudomonas aeruginosa, 6 µg/mL with Aspergillus flavus, 6 µg/mL with Aspergillus niger and 16 µg/mL with Proteus vulgaris.

As to `COc1ccccc1/C=N/c1c(C)n(C)n(-c2ccccc2)c1=O`, the results for the MIC in the data set on Salmonella typhimurium and in the data set with Bacillus cereus were 50 µg/mL (≈ 156 µM) and 12.5 µg/mL (≈ 38.9 µM), respectively.

Turning to `Cc1c(/N=C/c2ccccc2)c(=O)n(-c2ccccc2)n1C`, the pIC50 in data set [7] was 4.51.

Take `Cc1c(/N=C/c2ccccc2)/c(=N\Nc2nc(-c3ccc([N+](=O)[O-])cc3)cs2)n(-c2ccccc2)n1C`: the “inhibition (INH)” value in data set [1] came out at 90%.

The values are drawn from ChEMBL document CHEMBL5226276, “Molecules with versatile biological activities bearing antipyrinyl nucleus as pharmacophore” (Eur J Med Chem, 2020).
